Data reported in US11058772B2, “(Bacterio)chlorophyll photosensitizers for treatment of eye diseases and disorders” (Yeda Research and Development Co. Ltd., priority 2011, dated 2021).

What was measured:
[1] = tested on: rabbit cornea (keratocytes, endothelium), retina; test: Histology and endothelial staining after in vivo treatment; conditions: two days after treatment
Description: Forty eight hours or 1 week after treatment with Bchl-S, Bchl-D, RF or RF-D, rabbits were euthanized, and the eyes were immediately enucleated and fixated in Davidson's fixative (48 hour post treatment) or in 4% formaldehyde (1 week post treatment). […] sections were prepared from either the whole eye or corneas and stained with hematoxylin-eosin (H&E). The pathology of the corneal and retinal sections was examined. The sections were photographed with a digital video camera (Nikon DS-Ril, Japan), mounted on a light microscope (E-800 Leica, Germany). Keratocyte and endothelial cell densities were counted in 2 areas of 2 central histological sections and calculated, using Image-Pro software (MediaCybernetics, MD, USA). Rabbits underwent analysis of corneal endothelial damage 1 day post treatment, using alizarine red S and trypan blue staining as described in Spence and […], 1976. The treatment included either a 20-minute pretreatment with Bchl-S or Bchl-D solutions, followed by 30-minute irradiation at 755 nm (2 rabbits), or only a 30-minute irradiation at 760 nm (2 rabbits). Contralateral non-treated eyes served as controls. One rabbit underwent treatment with WST11 in saline (WST11-S; 20-minute incubation, 30-minute irradiation at 755 nm). Six rabbits underwent treatment with WS[…] (n=4, 20-minute incubation, 30-minute irradiation at 755 nm), or with RF-D (n=2, 30-minute incubation, 30-minute irradiation at 370 nm) as described above (In-vivo studies section). Contralateral eyes were used as control.

[2] = tested on: rabbit sclera; test: Biomechanical testing of rabbit sclera treated ex vivo, external NIR illumination; conditions: 2.5 mg/ml 30 min, external NIR 30 min
Description: The opposite side of the sclera served as control. Scleral strips, 4 mm in width, were cut at the equatorial treated area and the opposite sclera, and stress-strain measurements were performed using a biomaterial tester.
(§1) The corneal and scleral strips were clamped horizontally, at a distance of 6 mm, between the jaws of a microcomputer-controlled biomaterial tester (Minimat, Germany) with a 200 Newton force cell (FIG. 1). Controlled tightening of screws was performed with a calibrated screwdriver at a preset torque of 9 cN.m (Torqueleader, England). The strain was increased linearly at a rate of 1.0 mm/min and was measured up to tissue rupture. Young's modulus was calculated by the testing machine. Ultimate stress and Young's modulus were expressed in Mega Pascal (MPa) units.
Stress-strain tests of sclera of enucleated rabbits' eyes were performed following treatment with WST11 (2.5 mg/ml) as described in Materials and Methods. After photosensitizer impregnation, the sclera was illuminated by applying the laser beam directly onto the treated area (external illumination), using a flat optical fiber that run along a curved plastic or metal glide as shown in FIG. 17A. Strips of the sclera were cut and tested.

[3] = tested on: rabbit sclera; test: Biomechanical testing of rabbit sclera treated ex vivo, NIR illumination through the anterior eye segment; conditions: 20 min incubation
Description: as §1
Six eyes of three rabbits were enucleated. The posterior eye area up to the equatorial line was incubated using an eye cap with 2.5 mg/ml solution of WST11 in saline pH 7.3 for 20 minutes and then illuminated by NIR illumination through the anterior cornea using a diode laser (755 nm, 0.5 W) and three mirror fundus lens (FIGS. 18A-18C) for 30 minutes. Strips of sclera were cut and tested as described in Materials and Methods.

[4] = tested on: rabbit sclera; test: Depth of penetration into the rabbit sclera (fluorescence microscopy); assay type: in vitro ADME; conditions: ex vivo using eye cap and in-situ using Merocel sponge
Description: Test compound solution was applied in the supero-temporal or infero-nasal (alternating) quadrant of the rabbit by a curved plastic or metal glide with attached Merocel® sponge connected by a tube that ran along the glide outside. The glide was inserted through a conjunctival opening at the limbus (see FIGS. 17A-17B). After placing the glide attached to the sclera, the tube was connected to a syringe or pump, and the test compound reservoir was injected to impregnate the sclera. Application of the photosensitizer was continued for 10 or 30 minutes. Afterwards, the glide with the Merocel® was withdrawn.
The treated scleral area and the opposing control sclera were trephined with a round skin trephine of 8-mm diameter and scissors and immediately frozen. Sagittal slices of 20 microns were dissected with a cryomicrotome at the central area of the scleral button. The fluorescence intensity at 755 nm was recorded upon excitation at 740 nm using a fluorescence microscope (Olympus, Japan).

[5] = tested on: de-epithelialized rabbit cornea; test: Depth of penetration into the rabbit cornea, ex vivo (fluorescence microscopy of sagittal slices); assay type: in vitro ADME
Description: Eyes of rabbits were enucleated and deepithelialised mechanically post mortem. The eyes were exposed to Bchl-S solution using an eye cap for 5, 10, and 30 minutes and to Bchl-D solution for 10 and 30 min, in darkness. Controls: untreated eyes, and one eye treated with dextran-500 only for 30 min in darkness. Following this pretreatment, the corneas were briefly rinsed with saline and the central 8-mm buttons were trephined, removed, wrapped in aluminum foil and frozen on dry ice until further use. Central serial corneal sagittal slices (12 μm) were cut with a cryomicrotome, mounted on a microscope glass slide and stored frozen in −70° C. until use. For measurement of fluorescence, the individual slices were placed on the microscope base and a photographic record was immediately taken. Fluorescence intensity of Bchl-S or Bchl-D treated corneas from 3 serial cryo sections was recorded at 760 nm, upon excitation at 740 nm, using a fluorescence microscope (BX61 Olympus, Japan) equipped with CCD camera (Cascade 512B, Roper Sci., USA) and a long pass filter of above 760 nm. The digital data was analyzed, using ImageJ software (NIH, USA).
The penetration depth of the photosensitizer determines the extent of cornea's tissue exposure to the photodynamic effect. In particular, the deeper the penetration, the higher is the probability for endothelial impairment. To resolve the penetration depth of test compounds following different times of incubation, the digitized fluorescence of dissected corneal discs was monitored using fluorescence microscopy as described in Materials and Methods.
The penetration depth of WST11 into the de-epithelialized cornea, following various incubation times, was performed in the darkness in the absence or presence of dextran, using saline or dextran solutions of WST11 (WST11-S or WST11-D solutions, respectively) in 20 eyes of euthanized rabbits. Sagittal frozen sections mounted on glass slides were subjected to fluorescence microscopy. The distribution of WST11 across the cornea was recorded photographically by fluorescence microscopy (excitation/emission 740/760 nm). The controls were 4 untreated eyes and 1 eye treated only with dextran-T 500 for 30 minutes.

corneal edema (histology) [1]: marked edema
cornea swelling (thickness) ([1]; histology): 890 μm
endothelial counts, treatment vs control ([1]; P=0.47): no statistical difference
penetration into sclera [4]: penetrated into sclera tissue
stromal thickness after exposure ([5]; 30 min exposure to saline solution, from 360-380 μm): 600-730 μm
penetration depth into corneal stroma ([5]; in saline, no dextran, 10 min exposure, dipotassium salt): half of the corneal stroma
penetration depth into corneal stroma ([5]; in saline, no dextran, 10 min exposure, listed as WST11-S, dipotassium salt): entire outer half of the stroma
penetration depth into corneal stroma ([5]; in saline, no dextran, 30 min exposure, dipotassium salt): entire stroma depth
penetration depth into corneal stroma ([5]; in saline, no dextran, 30 min exposure, listed as WST11-S, dipotassium salt): all the way to Descemet's membrane
penetration depth into corneal stroma ([5]; with dextran-500, 10 min incubation): outer ⅓ of the corneal stroma
penetration depth into corneal stroma ([5]; with dextran-500, 30 min incubation): 50%
Compound: CCC1C2=Cc3c(C)c(C(=O)NCCS(=O)(=O)[O-])c4[n]3[Pd][n]3c(c(C)c(C(C)=O)c3=CC(=N2)C1C)=CC1=NC(=C4CC(=O)OC)C(CCC(=O)[O-])C1C.[K+].[K+] (stereo not shown) [WST11, Palladium 3^1-oxo-15-methoxycarbonylmethyl-rhodobacteriochlorin 13^1-(2-sulfoethyl)amide dipotassium salt]
keratocytes in stroma (histology) [1]: reduced number of keratocytes throughout the stroma
endothelial cell layer / damage to the endothelium ([1]; H&E and vital staining, listed as WST11-S, dipotassium salt): appeared intact
mean maximal stress ([2]; control 2.77±0.99): 7.6±0.99 MPa
mean Young's modulus ([2]; control 15.2±7.5): 45.6±3.9 MPa
increase in Young's modulus ([3]; NIR through anterior cornea): 54%
increase in maximal stress ([3]; NIR through anterior cornea): 42%
mean maximal stress ([3]; NIR through anterior cornea 30 min, control 4.65±1.15): 6.59±1.32 MPa
mean Young's modulus ([3]; NIR through anterior cornea 30 min, control 25.25±5.30): 38.83±6.89 MPa
